US9266922B2, “Antigen peptide and uses thereof” (priority 2011, dated 2016)
Like-named read-outs stand apart in the source and are kept apart here. Residues, ends and D or L forms follow the SMILES beside them.

Legend:
HLA-A*0201 [1] = biological target: T1, HLA-A*0201 (Homo sapiens, UniProt P04439, D140Y/D185E/D98H/E176V/E277Q/G131W/G231S/I119V/I121R/I166T/I218V/L300P/L318F/N151K/N90K/P208A/P217A/Q86G/Q94H/R138H/R169H/T345S); experiment: iTOPIA EDS MHC peptide binding assay; settings: HLA-A*0201 monomer, relative to positive control peptide, 21° C. for 18 h
Text: MHC peptide binding assay using iTOPIA EDS
Microtiter 96 well plates containing HLA class I MHC monomer loaded with the human β2-microglobulin and a “placeholder” peptide were used to evaluate peptide binding, affinity, and off-rate.
The 502 nectin4 nonapeptides were first evaluated for their ability to bind to each MHC molecule in the peptide binding assay. In this assay, the placeholder peptides were stripped from the MHC class I monomer complexes coated on plastic, which leaves the MHC class I heavy chain available as a binding partner for candidate peptides in the presence of human β2-microglobulin.
Peptide binding was performed at 21° C. for 18 h. Revelation was done using an anti HLA-ABC-FITC mAb that binds to refolded MHC complex conformation. The relative fluorescent intensity was read using a fluorimeter (Molecular Devices, SpectraMax Gemini, Sunnyvale, Calif., USA).
Peptides with a binding>30% of the positive control peptide were selected as “binder” and subsequently analyzed for affinity (ED50) and off-rate (T1/2).

HLA-A*0201 [2] = biological target: T1, HLA-A*0201; experiment: iScore calculation (iTOPIA system software); settings: multiparametric score of binding, off-rate and affinity
HLA-A*0201 [3] = biological target: T1, HLA-A*0201; experiment: biochemical; type: binding
[4] = biological target: T2, HLA A*0201 on CEM.T2 cell line (Homo sapiens, UniProt P04439, D140Y/D185E/D98H/E176V/E277Q/G131W/G231S/I119V/I121R/I166T/I218V/L300P/L318F/N151K/N90K/P208A/P217A/Q86G/Q94H/R138H/R169H/T345S); experiment: Cellular binding assay, HLA stabilization on CEM.T2 cells; type: cell-based; settings: for CEM.T2 % Binding: 100 μM peptide, 37° C. for 4 h, FACS anti HLA-A2, relative to HBV positive control peptide
T2 construct: This cell line expresses HLA A*0201 but is deficient for TAP transporter; endogenous in cells; host or cells: CEM.T2 (T2) cell line
Method: The CEM.T2 cell line (T2) is defective in the processing of proteins for presentation by MHC class 1 molecules. This cell line expresses HLA A*0201 but is deficient for TAP transporter. T2 is classically used to assess the Peptide/HLA-A*0201 Complex Stability[H. W. Nijman et al., 1993]
For HLA-A2*0201 stabilization, T2 cells (2×10^5/well) were incubated in serum-free RPMI (Gibco®-France) with 100 μM of selected peptide, at 37° C. for 4 h. Cells were washed two times with PBS supplemented with 1% BSA and stained with fluorescein isothiocyanate-conjugated anti HLA-A2 (Clone BB7.2) (BD Bioscience Pharmingen-France-) at 4° C. for 45 min. After 3 washes, cells were fixed in PBS supplemented with 2% paraformaldehyde and analyzed by FACS (FACScan, BD Bioscience). The percentage of peptide binding was calculated as follows: % Binding={(MFI peptide sample−MFI Neg control)/(MFI Pos control−MFI Neg control)}×100
Negative control was done without peptide.

[5] = biological target: T2, HLA A*0201 on CEM.T2 cell line; experiment: Cellular dissociation assay on CEM.T2 cells; type: cell-based; settings: after Brefeldin A 1 h and 3 h in serum-free RPMI at 37° C. (4 h)
Method: Cellular Dissociation Assay
After HLA-A2*0201 stabilization with peptides at 37° C. for 4 h, T2 cells were incubated for 1 h, in serum-free RPMI containing Brefeldin A (10 μg/ml), an inhibitor of the transport of secretory and lysosomal proteins [G. J. Strous et al., 1993]. After 3 washes, T2 cells were incubated for 3 h in serum-free RPMI at 37° C. Binding was then measured by FACS and after 4 h incubation. Percentage of Residual Binding (% RB) was calculated as follows: […]

[6] = system: MDA-MB-231 breast carcinoma cell line; experiment: CTL cytotoxicity, 4 h 51Cr-release assay; type: cell-based, human; settings: FIG. 4D
HLA-B*1501 = HLA-B*1501 (Homo sapiens, UniProt P01889, A329T/A93T/A95T/C349S/D201E/D98Y/E187L/E204Q/E69M/E70A/K202T/N87E/Q94N/R155S/R180W/S121R/S35A/S48A/V306I/V36M/Y140S/Y91S); experiment: iTOPIA EDS and […] analyses (FIG. 5B); type: binding; settings: iTOPIA EDS and SYFPEITHI
Method: (§1) A library of 502 nonapeptides which span the entire 510 amino acid sequence of human nectin4, was synthesized (JPT Peptide Technologies GmbH, Berlin Germany). A series of 9 peptides described in the literature was selected and used as reference (Table 1). Peptides (purity >80%) were dissolved in DMSO at a concentration of 10 mM and stored at −20° C. Specific control peptides for each allele were supplied by the manufacturer of the iTOPIA Epitope Discovery System (EDS) (Beckman Coulter Inc., San Diego, Calif., USA). The 502 peptides were tested for binding to eight alleles (HLA-A*0101; HLA-A*0201; HLA-A*0301; HLA-A*1101; HLA-A*2402; […]; HLA-B*0801; HLA-B*1501) with the iTOPIA EDS.

HLA-A*0201 [7] = biological target: T1, HLA-A*0201; experiment: iTOPIA EDS and […] analyses (FIG. 5B); type: binding; settings: iTOPIA EDS and SYFPEITHI
Method: as §1

HLA-A*2402 = HLA-A*2402 (Homo sapiens, UniProt P04439, D101N/D140Y/D185E/E176V/E190D/F33S/G103R/G107R/I119L/I121M/I306V/K335N/L105A/L180Q/L300P/N151K/N90K/Q86E/Q94H/R106L/R138H/R89G/T104I/T345S/V100E/W191G/Y123F); experiment: iTOPIA EDS and […] analyses (FIG. 5B); type: binding; settings: iTOPIA EDS and SYFPEITHI
Method: as §1

[8] = peptide concentration giving 50% of optimal binding, 10^−4 to 10^−9 M, 21° C. for 18 h, read-out: Affinity (ED50)

SMILES | % Binding (HLA-A*0201 [1]) [%] | iScore (HLA-A*0201 [2]) | EC50 (HLA-A*0201 [3]; [8]) [nM] | CEM.T2 % Binding [4] [%] | CEM.T2 % Residual Binding [5] [%] | EC50 (HLA-A*0201 [3]; Affinity (ED50)) [nM] | EC50 (HLA-A*0201 [3]; estimated dose to reach 50% maximal binding (ED50)) [nM] | lysis by peptide-specific CTL of MDA-MB-231 cell line expressing nectin4 ([6]; CTL isolated with HLA-A2/peptide tetramer, target not peptide loaded) | lysis by peptide-specific CTL of wild-type MDA-MB-231 cells ([6]; nectin4 negative HLA-A*0201 target) | HLA-A*0201 class I level on T2 cells ([4]; flow cytometry, FIG. 3A and 3B) | binder class for HLA-B*1501 (HLA-B*1501) | binder class for HLA-A*0201 (HLA-A*0201 [7]) | binder class for HLA-A*2402 (HLA-A*2402)
CC(C)[C@H](NC(=O)CNC(=O)[C@@H](NC(=O)[C@@H](NC(=O)[C@@H](NC(=O)[C@@H](NC(=O)[C@H](CO)NC(=O)[C@H](C)NC(=O)[C@@H](N)CO)C(C)C)C(C)C)C(C)C)C(C)C)C(=O)O [Peptide 347] (H-SASVVVVGV-OH; N-terminus and C-terminus assumed) | 64 | 0.708 | 200 | 40 | 0 |  |  |  |  |  |  |  | 
CC(C)C[C@H](NC(=O)[C@H](CS)NC(=O)[C@H](Cc1ccccc1)NC(=O)[C@H](CC(C)C)NC(=O)[C@@H](N)CC(C)C)C(=O)N[C@@H](CC(C)C)C(=O)N[C@H](C(=O)N[C@H](C(=O)N[C@H](C(=O)O)C(C)C)C(C)C)C(C)C [Peptide 359] (H-LLFCLLVVV-OH; N-terminus and C-terminus assumed) | 67 | 0.674 | 500 | 7 | 23 |  |  |  |  |  |  |  | 
CC(C)[C@H](NC(=O)[C@@H](NC(=O)[C@@H](NC(=O)[C@@H](NC(=O)[C@@H](NC(=O)[C@H](CC(=O)O)NC(=O)[C@H](CO)NC(=O)[C@@H](NC(=O)CN)[C@@H](C)O)C(C)C)C(C)C)[C@@H](C)O)C(C)C)C(=O)O [Peptide 35] (H-GTSDVVTVV-OH; N-terminus and C-terminus assumed) | 63 | 0.539 | 300 | 60 | 0 |  |  |  |  |  |  |  | 
CSCC[C@H](NC(=O)[C@H](C)N)C(=O)N[C@@H](CC(C)C)C(=O)N[C@@H](CCCCN)C(=O)N[C@@H](CS)C(=O)N[C@@H](CC(C)C)C(=O)N[C@@H](CO)C(=O)N[C@@H](CCC(=O)O)C(=O)NCC(=O)O [Peptide 266] (H-AMLKCLSEG-OH; N-terminus and C-terminus assumed) | 74 | 0.667 | 700 | 31 | 39 |  |  |  |  |  |  |  | 
CC(C)C[C@H](NC(=O)[C@H](CO)NC(=O)[C@@H]1CCCN1C(=O)[C@H](CC(C)C)NC(=O)[C@@H]1CCCN1C(=O)[C@@H]1CCCN1C(=O)[C@@H](NC(=O)[C@H](CC(C)C)NC(=O)[C@@H](N)C(C)C)C(C)C)C(=O)O [Peptide 145] (H-VLVPPLPSL-OH; N-terminus and C-terminus assumed) | 67 | 0.783 |  |  |  | 500 | ~100 | able to kill the MDA-MB-231 cell line expressing nectin4 | not the wild-type MDA-MB-231 cells | increase the HLA-A*0201 class I level on T2 cells | strong binder | strong binder | strong binder
CC(C)C[C@H](N)C(=O)N[C@H](C(=O)N[C@@H](CO)C(=O)N[C@@H](C)C(=O)N[C@@H](CO)C(=O)N[C@H](C(=O)N[C@H](C(=O)N[C@H](C(=O)N[C@H](C(=O)O)C(C)C)C(C)C)C(C)C)C(C)C)C(C)C [Peptide 345] (H-LVSASVVVV-OH; N-terminus and C-terminus assumed) | 51 | 0.626 | 60 | 11 | 0 |  |  |  |  |  |  |  | 
CC(C)C[C@H](NC(=O)[C@H](CC(C)C)NC(=O)[C@H](CC(C)C)NC(=O)[C@@H](N)CC(C)C)C(=O)N[C@@H](C)C(=O)N[C@@H](CO)C(=O)N[C@@H](Cc1ccccc1)C(=O)N[C@H](C(=O)NCC(=O)O)[C@@H](C)O [Peptide 19] (H-LLLLASFTG-OH; N-terminus and C-terminus assumed) | 75 | 0.659 | 60 | 17 | 0 |  |  |  |  |  |  |  | 
CC(C)C[C@H](NC(=O)[C@H](C)N)C(=O)N[C@@H](CC(C)C)C(=O)N[C@@H](Cc1ccccc1)C(=O)N[C@@H](CS)C(=O)N[C@@H](CC(C)C)C(=O)N[C@@H](CC(C)C)C(=O)N[C@H](C(=O)N[C@H](C(=O)O)C(C)C)C(C)C [Peptide 358] (H-ALLFCLLVV-OH; N-terminus and C-terminus assumed) | 53 | 0.71 | 200 | 26 | 26 |  |  |  |  |  |  |  | 
CC[C@H](C)[C@H](NC(=O)[C@@H](N)C(C)C)C(=O)N[C@@H](C)C(=O)N[C@@H](C)C(=O)N[C@@H](CC(C)C)C(=O)N[C@@H](CC(C)C)C(=O)N[C@@H](Cc1ccccc1)C(=O)N[C@@H](CS)C(=O)N[C@@H](CC(C)C)C(=O)O [Peptide 355] (H-VIAALLFCL-OH; N-terminus and C-terminus assumed) | 59 | 0.888 | 30 | 18 | 24 |  |  |  |  |  |  |  | 
